For one experiment, the system named is T1, HsCPTb.
T1 construct: cDNA in pESC-URA (GAL1), S. cerevisiae INVSc1 microsomal fraction; no tag mentioned
Kind of experiment: HPLC prenyltransferase assay, yeast microsomes. The format is biochemical, Hypericum sampsonii. Conditions: optimum conditions, Mg2+, pH optimum 10.

In a further experiment the test system is T2, HsCPTa.
T2 construct: cDNA in pESC-URA (GAL1), S. cerevisiae INVSc1 microsomal fraction; no tag mentioned
Kind of experiment: HPLC prenyltransferase assay, yeast microsomes. The format is biochemical, Hypericum sampsonii. Conditions: optimum conditions, Mg2+, pH optimum 7.

As a reminder, the Km is the substrate concentration at which the rate is half of its maximum. Consider `CC(C)=CCOP(=O)(O)OP(=O)(O)O` [DMAPP], for which the Km in the experiment on HsCPTb (prenyl donor, acceptor grandone (only one accepted)) was 298 ± 29.5 µM; with HsCPTa (prenyl donor, acceptor not given) it was 65.4 ± 6.63 µM.
With `CC(C)=CCC1=C(O)C(CC=C(C)C)(CC=C(C)C)C(=O)C(C(=O)C(C)C)=C1O` [colupulone], the Km in the experiment with HsCPTa (DMAPP saturation) worked out at 106 ± 9.86 µM.
Regarding `CC(C)=CCC1=C(O)C(CC=C(C)C)(CC=C(C)C)C(=O)C(C(=O)c2ccccc2)=C1O` [compound 1, grandone], the values for the Km in the experiment on HsCPTb (DMAPP saturation) and in the experiment with HsCPTa (DMAPP saturation) were 40.4 ± 5.06 µM and 62 ± 10.1 µM, respectively.
With `CC(C)=CCC/C(C)=C/C[C@]1(CC=C(C)C)C(=O)C(CC=C(C)C)=C(O)/C(=C(\O)c2ccccc2)C1=O` [compound 2, kolanone], in the experiment on HsCPTa (DMAPP saturation), the Km was determined as 114 ± 20 µM.

(Values after publication PMC11133429, “Regiodivergent biosynthesis of bridged bicyclononanes” (Nature Communications, 2024).)
